Source: ChEMBL document CHEMBL5715952 (Oncotarget, 2015)

Experiments:
[1] = Inhibition of CSF1R/FLT3 in human RPMI-8226 cells assessed as reduction of cell growth incubated for 72 hrs by CellTiter 96 aqueous one solution cell proliferation assay; assay type: cell-based; settings: RPMI-8226, 72 h
[2] = Inhibition of CSF1R/FLT3 in bortezomib Resistant human RPMI-8226 cells assessed as reduction of cell growth incubated for 72 hrs by CellTiter 96 aqueous one solution cell proliferation assay; assay type: cell-based; settings: Bortezomib-resistant RPMI-8226, 72 h
[3] = Inhibition of CSF1R/FLT3 in Melphalan Resistant human RPMI-8226 cells assessed as reduction of cell growth incubated for 72 hrs by CellTiter 96 aqueous one solution cell proliferation assay; assay type: cell-based; settings: Melphalan-resistant RPMI-8226 cell
[4] = Inhibition of CSF1R/FLT3 in human ANBL-6 cells assessed as reduction of cell growth incubated for 72 hrs by CellTiter 96 aqueous one solution cell proliferation assay; assay type: cell-based; settings: ANBL-6, 72 h
[5] = Inhibition of CSF1R/FLT3 in human bortezomib-resistant ANBL6 cells assessed as reduction of cell growth incubated for 72 hrs by CellTiter 96 aqueous one solution cell proliferation assay; assay type: cell-based
[6] = Inhibition of CSF1R/FLT3 in human U-266 cells assessed as reduction of cell growth incubated for 72 hrs by CellTiter 96 aqueous one solution cell proliferation assay; assay type: cell-based; settings: U-266, 72 h
[7] = Ratio of IC50 for inhibition of CSF1R/FLT3 in human RPMI-8226 cells assessed as reduction of cell viability to IC50 for inhibition of CSF1R/FLT3 in human melphalan-resistant RPMI-8226 cells assessed as reduction of cell viability; settings: time 72 hrs; condition multiple myeloma
[8] = Ratio of IC50 for inhibition of CSF1R/FLT3 in human RPMI-8226 cells assessed as reduction of cell viability to IC50 for inhibition of CSF1R/FLT3 in human RPMI-8226/BR resistant cells assessed as reduction of cell viability; settings: condition multiple myeloma
[9] = Ratio of IC50 for inhibition of CSF1R/FLT3 in human ANBL6 cells assessed as reduction of cell viability to IC50 for inhibition of CSF1R/FLT3 in human ANBL6/BR resistant cells assessed as reduction of cell viability; settings: condition multiple myeloma
[10] = Inhibition of PI3K/mTOR/ATM in human RPMI-8226 cells assessed as reduction of cell growth incubated for 72 hrs by CellTiter 96 aqueous one solution cell proliferation assay; assay type: cell-based; settings: RPMI-8226, 72 h
[11] = Inhibition of PI3K/mTOR/ATM in bortezomib Resistant human RPMI-8226 cells assessed as reduction of cell growth incubated for 72 hrs by CellTiter 96 aqueous one solution cell proliferation assay; assay type: cell-based; settings: Bortezomib-resistant RPMI-8226, 72 h
[12] = Inhibition of PI3K/mTOR/ATM in Melphalan Resistant human RPMI-8226 cells assessed as reduction of cell growth incubated for 72 hrs by CellTiter 96 aqueous one solution cell proliferation assay; assay type: cell-based; settings: Melphalan-resistant RPMI-8226 cell
[13] = Inhibition of PI3K/mTOR/ATM in human ANBL-6 cells assessed as reduction of cell growth incubated for 72 hrs by CellTiter 96 aqueous one solution cell proliferation assay; assay type: cell-based; settings: ANBL-6, 72 h
[14] = Inhibition of PI3K/mTOR/ATM in human bortezomib-resistant ANBL6 cells assessed as reduction of cell growth incubated for 72 hrs by CellTiter 96 aqueous one solution cell proliferation assay; assay type: cell-based
[15] = Inhibition of PI3K/mTOR/ATM in human U-266 cells assessed as reduction of cell growth incubated for 72 hrs by CellTiter 96 aqueous one solution cell proliferation assay; assay type: cell-based; settings: U-266, 72 h
[16] = Ratio of IC50 for inhibition of PI3K/mTOR/ATM in human RPMI-8226 cells assessed as reduction of cell viability to IC50 for inhibition of PI3K/mTOR/ATM in human melphalan-resistant RPMI-8226 cells assessed as reduction of cell viability; settings: time 72 hrs; condition multiple myeloma
[17] = Ratio of IC50 for inhibition of PI3K/mTOR/ATM in human RPMI-8226 cells assessed as reduction of cell viability to IC50 for inhibition of PI3K/mTOR/ATM in human RPMI-8226/BR resistant cells assessed as reduction of cell viability; settings: condition multiple myeloma
[18] = Ratio of IC50 for inhibition of PI3K/mTOR/ATM in human ANBL6 cells assessed as reduction of cell viability to IC50 for inhibition of PI3K/mTOR/ATM in human ANBL6/BR resistant cells assessed as reduction of cell viability; settings: condition multiple myeloma

| SMILES | IC50 [1] [µM] | IC50 [2] [µM] | IC50 [3] [µM] | IC50 [4] [µM] | IC50 [5] [µM] | IC50 [6] [µM] | Ratio IC50 [7] | Ratio IC50 [8] | Ratio IC50 [9] | IC50 [10] [µM] | IC50 [11] [µM] | IC50 [12] [µM] | IC50 [13] [µM] | IC50 [14] [µM] | IC50 [15] [µM] | Ratio IC50 [16] | Ratio IC50 [17] | Ratio IC50 [18] |
| --- | --- | --- | --- | --- | --- | --- | --- | --- | --- | --- | --- | --- | --- | --- | --- | --- | --- | --- |
| CN(C)CC(=O)N1CCC(c2ccc(NC(=O)c3nc(C#N)c[nH]3)c(C3=CCCCC3)c2)CC1 | 10 | 10 | 10 | 10 | 10 | 10 | 1 | 1 | 1 |  |  |  |  |  |  |  |  |  |
| O=c1cc(-c2cccc3c2Sc2ccccc2S3)oc(N2CCOCC2)c1 [KU-55933] |  |  |  |  |  |  |  |  |  | 10 | 10 | 10 | 10 | 10 | 10 | 1 | 1 | 1 |
